Measured values: patent US20250296953A1, “3,4-THIAZOLO-STEROIDS AND METHODS OF MAKING AND USING THE SAME” (Arkansas State University - Jonesboro, priority 2018, published 2025)
Like-named read-outs stand apart in the source and are kept apart here.

Legend:
[1] = system: 60 different human tumor cell lines; test: NCI Development Therapeutics Program 60 cell line screen, one dose; format: cell-based
[2] = system: SR; test: NCI 60 five dose screen
[3] = system: 60 different human tumor cell lines; test: cells

## C[C@]12CCc3sc(NCCc4ccccc4)nc3C1=CC[C@@H]1[C@@H]2CC[C@]2(C)C(=O)CC[C@@H]12 [IIa.2, (1S,2R,13R,14S,18S)-2,18-dimethyl-7-(2-phenylethylamino)-6-thia-8-azapentacyclo [11.7.0.02,10.05,9.014,18]icosa-5(9),7,10-trien-17-one]
[1]; Breast Cancer, BT-549
  Growth Percent: 60.37%
[1]; Breast Cancer, HS 578T
  Growth Percent: 75.51%
[1]; Breast Cancer, MCF7
  Growth Percent: 20.41%
[1]; Breast Cancer, MDA-MB-231/ATCC
  Growth Percent: 83.12%
[1]; Breast Cancer, MDA-MB-468
  Growth Percent: 32.92%
[1]; Breast Cancer, T-47D
  Growth Percent: 75.21%
[1]; CNS Cancer, SF-268
  Growth Percent: 83.93%
[1]; CNS Cancer, SNB-19
  Growth Percent: 80.20%
[1]; CNS Cancer, SNB-75
  Growth Percent: 85.55%
[1]; CNS Cancer, U251
  Growth Percent: 60.12%
[1]; Colon Cancer, COLO 205
  Growth Percent: 90.61%
[1]; Colon Cancer, HCC-2998
  Growth Percent: 105.58%
[1]; Colon Cancer, HCT-116
  Growth Percent: 21.16%
[1]; Colon Cancer, HT29
  Growth Percent: 34.29%
[1]; Colon Cancer, KM12
  Growth Percent: 74.67%
[1]; Colon Cancer, SW-620
  Growth Percent: 35.34%
[1]; Leukemia, CCRF-CEM
  Growth Percent: 8.44%
[1]; Leukemia, HL-60(TB)
  Growth Percent: 1.45%
[1]; Leukemia, K-562
  Growth Percent: 5.14%
[1]; Leukemia, MOLT-4
  Growth Percent: 4.71%
[1]; Leukemia, RPMI-8226
  Growth Percent: −5.28%
[1]; Leukemia, SR
  Growth Percent: 0.92%
[1]; Melanoma, LOX IMVI
  Growth Percent: 70.22%
[1]; Melanoma, M14
  Growth Percent: 85.36%
[1]; Melanoma, MALME-3M
  Growth Percent: 73.32%
[1]; Melanoma, MDA-MB-435
  Growth Percent: 58.12%
[1]; Melanoma, SK-MEL-2
  Growth Percent: 92.09%
[1]; Melanoma, SK-MEL-5
  Growth Percent: 65.96%
[1]; Melanoma, SK-MEL-28
  Growth Percent: 83.31%
[1]; Melanoma, UACC-62
  Growth Percent: 75.59%
[1]; Melanoma, UACC-257
  Growth Percent: 87.36%
[1]; Non-small Cell Lung Cancer, A549/ATCC
  Growth Percent: 87.76%
[1]; Non-small Cell Lung Cancer, EKVX
  Growth Percent: 92.45%
[1]; Non-small Cell Lung Cancer, HOP-62
  Growth Percent: 101.67%
[1]; Non-small Cell Lung Cancer, HOP-92
  Growth Percent: 66.42%
[1]; Non-small Cell Lung Cancer, NCI-H23
  Growth Percent: 66.61%
[1]; Non-small Cell Lung Cancer, NCI-H226
  Growth Percent: 84.07%
[1]; Non-small Cell Lung Cancer, NCI-H322M
  Growth Percent: 91.89%
[1]; Non-small Cell Lung Cancer, NCI-H460
  Growth Percent: 72.80%
[1]; Ovarian Cancer, IGROV1
  Growth Percent: 87.98%
[1]; Ovarian Cancer, NCI/ADR-RES
  Growth Percent: 70.16%
[1]; Ovarian Cancer, OVCAR-3
  Growth Percent: 6.41%
[1]; Ovarian Cancer, OVCAR-4
  Growth Percent: 74.22%
[1]; Ovarian Cancer, OVCAR-5
  Growth Percent: 100.34%
[1]; Ovarian Cancer, OVCAR-8
  Growth Percent: 72.09%
[1]; Ovarian Cancer, SK-OV-3
  Growth Percent: 111.53%
[1]; Prostate Cancer, DU-145
  Growth Percent: 33.94%
[1]; Prostate Cancer, PC-3
  Growth Percent: 38.82%
[1]; Renal Cancer, 786-0
  Growth Percent: 4.36%
[1]; Renal Cancer, A498
  Growth Percent: 86.92%
[1]; Renal Cancer, ACHN
  Growth Percent: 73.78%
[1]; Renal Cancer, CAKI-1
  Growth Percent: 73.48%
[1]; Renal Cancer, RXF 393
  Growth Percent: 20.01%
[1]; Renal Cancer, SN12C
  Growth Percent: 68.49%
[1]; Renal Cancer, TK-10
  Growth Percent: 91.34%
[1]; Renal Cancer, UO-31
  Growth Percent: 50.44%
[2]; Homo sapiens, SR
  GI50: 3.07 µM
[2]; Homo sapiens, SR, read-out: LC50
  CC50: > 100 µM
[2]; SR (Leukemia), five dose
  TGI: >1.00E−4
[3]; 60 cell
  GI50: 3.35 µM
[3]; 60 cell, read-out: LC50
  CC50: > 100 µM
[3]; 786-0
  GI50: 2.82 µM
[3]; 786-0, read-out: LC50
  CC50: > 100 µM
[3]; A498
  GI50: 4.43 µM
[3]; A498, read-out: LC50
  CC50: > 100 µM
[3]; A549
  GI50: 7 µM
[3]; A549, read-out: LC50
  CC50: > 100 µM
[3]; ACHN
  GI50: 1.96 µM
[3]; ACHN, read-out: LC50
  CC50: 7.19 µM
[3]; BT-549
  GI50: 2.42 µM
[3]; BT-549, read-out: LC50
  CC50: > 100 µM
[3]; CAKI-1
  GI50: 3.13 µM
[3]; CAKI-1, read-out: LC50
  CC50: > 100 µM
[3]; CCRF-CEM
  GI50: 2.63 µM
[3]; CCRF-CEM, read-out: LC50
  CC50: > 100 µM
[3]; COLO 205
  GI50: 3.03 µM
[3]; COLO 205, read-out: LC50
  CC50: > 100 µM
[3]; DU-145
  GI50: 3.64 µM
[3]; DU-145, read-out: LC50
  CC50: > 100 µM
[3]; EKVX
  GI50: 90.1 µM
[3]; EKVX, read-out: LC50
  CC50: > 100 µM
[3]; HCC 2998
  GI50: 8.19 µM
[3]; HCC 2998, read-out: LC50
  CC50: > 100 µM
[3]; HCT-15
  GI50: 1.57 µM
[3]; HCT-15, read-out: LC50
  CC50: 88.7 µM
[3]; HCT-116
  GI50: 2.87 µM
[3]; HCT-116, read-out: LC50
  CC50: > 100 µM
[3]; HL-60
  GI50: 2.93 µM
[3]; HL-60, read-out: LC50
  CC50: > 100 µM
[3]; HOP-62
  GI50: 8.52 µM
